Data from patent publication US20240115744A1, “FIBRIN-BINDING COMPOUNDS FOR IMAGING AND TREATMENT” (Collagen Medical, LLC, priority 2019, published 2024).
Entries after “also recorded” stand apart in the source; their conditions may differ. *1 amine or outer side, *2 acyl side, *3 side chain or, on linkers, in order; H or OH if unused. Where a SMILES comes first, the peptide text is derived from it. Bridges are numbered along the chain shown (N, C = ends). [ ]: non-standard residue; d: D form. The star is where a group is joined. NODAGA = O=C(O)CN1CCN(CC(=O)O)CCN(C(CCC(=O)*)C(=O)O)CC1; Tyr(3-Cl) = N[C@@H](Cc1ccc(O)c(Cl)c1)C(=O)O; X1 = O=C([C@@H]1CC(O)CN1[*:1])[*:2]

How the values were obtained:
Fibrin clots = assay: PET in rabbit model of high risk plaque (plaque-rupture model); type: in vivo
Source text: Mean SUV values, TBRvc and TBRm were compared across all rabbits after in vivo PET.

[1] = test system: fibrin in human carotid endarterectomy specimens; assay: Ex vivo functional probe assay of human carotid endarterectomy specimens; settings: compared to non-binding probe ^68Ga-22; 12 patients; P<0.05
Description: Twelve discarded surgical specimens from asymptomatic patients who underwent elective carotid endarterectomy at Massachusetts General Hospital were obtained and used in ex vivo studies described herein. Samples were processed for histology, autoradiography, and probe binding assay as described above (Examples 6 and 13).
Discarded surgical specimens were embedded in optimal cutting temperature compound, snap-frozen, and stored at −80° C. before further analysis. Alternating consecutive cryosections were processed for histology and autoradiography; triplicate tissue samples with 50 μm gap in between were used for these experiments. The remaining tissue samples were processed for functional probe assay.
For functional probe assay, samples were thawed at room temperature, weighed (8-15 mg per sample), cut into duplicates, and placed into tubes containing 111-148 kBq (3-4 μCi)^68Ga-20 or the non-fibrin binding control probe ^68Ga-22 in 1 mL PBS. The mixture was shaken for 45 minutes at room temperature. After centrifugation, supernatant (sup-1) was removed, kept for further analysis, and tissue samples were washed with PBS (1 mL); this procedure was repeated twice for each sample. Wash solutions (wash-1 and wash-2) were kept for further analysis. Activities in tissue samples and solutions sol-1, wash-1, and wash-2 were measured on a gamma counter. Percent uptake was calculated as follows: […]

vessel wall fibrin = target: T1, vessel wall fibrin (Rattus norvegicus, UniProt P02680+P06399+P14480); assay: Autoradiography / PET imaging of injured ipsi- and contra-lateral carotid arteries; type: in vivo; settings: rat injured vs contra-lateral carotid; ^68Ga-19 vs ^68Ga-20
T1 construct: resulting in mural thrombus formation at the site of the crush; from tissue; host or cells: injured common carotid artery of Wistar rats (in vivo and ex vivo autoradiography)
T1 sequence (P06399 37-782 limits assumed): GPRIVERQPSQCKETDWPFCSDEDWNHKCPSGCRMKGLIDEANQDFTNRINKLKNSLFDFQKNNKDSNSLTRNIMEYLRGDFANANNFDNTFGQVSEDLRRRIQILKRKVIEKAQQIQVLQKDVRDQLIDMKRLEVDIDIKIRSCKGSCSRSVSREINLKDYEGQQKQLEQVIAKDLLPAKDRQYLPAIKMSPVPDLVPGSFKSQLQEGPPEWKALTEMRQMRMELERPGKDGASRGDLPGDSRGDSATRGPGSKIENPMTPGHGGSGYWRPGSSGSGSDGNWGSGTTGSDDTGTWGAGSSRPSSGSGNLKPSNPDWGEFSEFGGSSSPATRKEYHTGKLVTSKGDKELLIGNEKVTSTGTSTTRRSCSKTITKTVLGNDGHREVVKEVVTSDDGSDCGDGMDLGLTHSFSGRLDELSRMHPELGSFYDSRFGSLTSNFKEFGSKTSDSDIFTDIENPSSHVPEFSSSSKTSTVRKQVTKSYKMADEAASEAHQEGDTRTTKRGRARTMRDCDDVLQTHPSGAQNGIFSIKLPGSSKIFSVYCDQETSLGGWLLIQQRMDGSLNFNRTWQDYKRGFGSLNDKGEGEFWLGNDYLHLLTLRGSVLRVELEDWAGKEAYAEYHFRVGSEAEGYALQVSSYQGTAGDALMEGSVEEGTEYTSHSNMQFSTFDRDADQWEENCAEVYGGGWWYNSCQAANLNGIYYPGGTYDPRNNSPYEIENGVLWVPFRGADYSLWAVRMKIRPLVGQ
T1 sequence (P14480 33-479 limits assumed): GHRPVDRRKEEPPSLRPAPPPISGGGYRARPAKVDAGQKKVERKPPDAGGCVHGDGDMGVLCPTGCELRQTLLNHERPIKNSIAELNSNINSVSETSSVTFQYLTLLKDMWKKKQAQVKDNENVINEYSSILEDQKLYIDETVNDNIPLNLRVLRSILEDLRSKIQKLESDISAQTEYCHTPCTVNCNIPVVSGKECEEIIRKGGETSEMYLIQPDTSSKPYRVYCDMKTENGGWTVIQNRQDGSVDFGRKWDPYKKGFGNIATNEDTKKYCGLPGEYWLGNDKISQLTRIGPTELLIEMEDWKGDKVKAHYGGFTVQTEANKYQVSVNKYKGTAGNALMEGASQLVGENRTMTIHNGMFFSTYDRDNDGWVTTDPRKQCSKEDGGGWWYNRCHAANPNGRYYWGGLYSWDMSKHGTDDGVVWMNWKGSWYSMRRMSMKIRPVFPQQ
T1 sequence (P02680 27-445 limits assumed): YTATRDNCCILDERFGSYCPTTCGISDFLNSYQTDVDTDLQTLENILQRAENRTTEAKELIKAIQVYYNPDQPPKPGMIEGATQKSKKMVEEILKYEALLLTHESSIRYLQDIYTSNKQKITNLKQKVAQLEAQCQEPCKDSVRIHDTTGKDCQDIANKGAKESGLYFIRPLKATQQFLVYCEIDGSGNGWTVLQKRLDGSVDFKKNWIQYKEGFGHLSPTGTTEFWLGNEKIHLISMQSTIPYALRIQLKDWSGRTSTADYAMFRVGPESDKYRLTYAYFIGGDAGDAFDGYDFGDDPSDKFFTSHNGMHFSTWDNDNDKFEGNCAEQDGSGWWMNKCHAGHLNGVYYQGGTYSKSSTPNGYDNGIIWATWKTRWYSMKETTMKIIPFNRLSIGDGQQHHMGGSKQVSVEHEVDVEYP
Description: (§1) Rat carotid endothelial injury model in vivo studies were conducted, wherein the common carotid artery is isolated and crushed briefly with a hemostat, resulting in mural thrombus formation at the site of the crush. The vessel wall fibrin is then imaged with our PET compounds. All six compounds were evaluated in this model.
(§2) Adult male Wistar rats were anesthetized by isoflurane (1-2% in medical air). Body temperature was maintained at 37° C. using a thermo-regulated heating pad. The right femoral vein and artery were cannulated for compound injection and blood sampling, respectively. Endothelial injury was induced by crush injury to the right common carotid artery (1-2 cm proximal to the carotid bifurcation) by clamping the vessel with a hemostat for 5 minutes. Immediately following the surgical procedures, rats were placed in a micro-PET/CT scanner. Compound (200-600 μL) was injected, PET-CT images were acquired, and blood samples were drawn from the femoral artery prior to compound injection and at 2, 5, 10, 15, 30, 60, 90, 120 min post injection. Tissues were harvested at the end for ex vivo analyses.
The injured ipsi- and the contra-lateral carotid arteries were placed on a multipurpose film and imaged using a Perkin-Elmer Cyclone Plus Storage Phosphor system. […]

[2] = Blood analysis in rat model of carotid artery crush injury (blood clearance); type: in vivo; settings: relative to the other compounds compared
Description: as §1, §2
Blood samples were drawn from prior to probe injection and at 2, 5, 10, 15, 30, 60, 90, 120 min post injection. Each blood sample was weighed and counted using a gamma-counter. The activity in each sample was calculated as percent injected dose (% ID) per gram of tissue.

CC[C@H](C)[C@H](NC(=O)[C@H](Cc1cnc[nH]1)NC(=O)[C@@H]1CSSC[C@H](NC(=O)[C@@H](CCC(=O)O)NC(=O)[C@H](Cc2ccc(O)cc2)NC(=O)CCC(C(=O)O)N2CCN(CC(=O)O)CCN(CC(=O)O)CC2)C(=O)N2CC(O)C[C@H]2C(=O)N[C@@H](Cc2ccc(O)c(Cl)c2)C(=O)NCC(=O)N[C@@H](CC(C)C)C(=O)N1)C(=O)N[C@H](CCC(N)=O)C(N)=O (stereo partly shown) [Compound ^68Ga-20, metal not drawn] ({NODAGA}-Y[dE]C[X1][Tyr(3-Cl)]GLCHI[dQ]-NH2; disulfide 3-8)
plaque rupture-to-control SUV ratios (Fibrin clots; across post injection imaging time points): higher plaque rupture-to-control SUV ratios were seen with longer post injection imaging time points | PET-MR uptake along the aorta (Fibrin clots; plaque rupture group vs control): Fibrin clots were seen as uptake spots along the aorta on the plaque rupture group | validation in rabbit model of high risk plaque (Fibrin clots; plaque-rupture model, in vivo PET): successfully validated | uptake, functional probe assay [1]: variable but significantly increased; also recorded: significantly higher uptake | ipsi: contra ratios (vessel wall fibrin): better ipsi: contra ratios | blood clearance ([2]; rat carotid artery crush injury, 2-120 min post injection): faster blood clearance | metabolic stability ([2]; rat): better metabolic stability
